Laboratory results as given in patent US8383824B2, “Heterocyclic antiviral compounds” (Roche Palo Alto LLC, priority 2009, dated 2013).

What was measured:
[1] = Determination of pharmacokinetic parameters in rats; assay type: in vivo; conditions: male, Wistar Han (Hanover-Wistar), Crl:WI(GLx/BRL/Han)IGS BR, rat, oral gavage, 10 mg/kg, plasma; for AUC(0-t): read-out: AUC0→24 (extrapolated)
Method: Intact male IGS Wistar Han Rats Crl:WI(GLx/BRL/Han)IGS BR (Hanover-Wistar) rats weighing 200-250 g were used. Groups of three rats were used for each dose level of an experimental compound. Animals were allowed normal access to chow and water throughout the experiment. The test substance was formulated as an aqueous suspension containing Captex355EP, Capmul MCM, EtOH, and propylene glycol (30:20:20:30) at a dose equivalent to 10 mg/kg of the I-6 and was administered orally by gavage. A blood sample (0.3 mL) was collected from the treated rats at, 0.25, 0.5, 1, 3, 5, and 8 h from a jugular cannula and at 24 h by cardiac puncture. Potassium oxalate/NaF were added to the samples which were stored on ice during sampling procedure. The samples were spun in a refrigerated centrifuge at […] as soon as possible and the plasma samples were stored in a −80° C. freezer until analysis. Aliquots of plasma (0.05 mL) were mixed with 0.1 mL of acetonitrile. Internal standard (0.05 mL in water) and 0.02 mL blank solvent were added. A set of calibration standards was prepared by mixing 0.05-mL aliquots of plasma from untreated rats with 0.1 mL acetonitrile, 0.02-mL aliquots of standard solution in methanol:water (1:1) and 0.05-mL aliquots of the internal standard in water. Each plasma sample and calibration standard was vortexed thoroughly and then centrifuged at 3000 rpm for 5 min to precipitate the protein. Supernatant (100 μL each) from centrifugation was transferred into a 96-well plate containing 200 μL of aqueous mobie phase for LC/MS/MS analysis.

HCV = conditions: monotherapy; cited from earlier work
[2] = tested on: HCV replicon cells (2209-23); assay: HCV replicon assay (Renilla luciferase reporter); assay type: cell-based, HCV genotype 1b replicon in human hepatoma Huh7 cells; conditions: Hepatitis C virus, 72 h; 2209-23 cells, three days incubation

Row | AUC [1] | Cmax [1] | AUC(0-t) [1] | Structure (SMILES) | patients with serum amino transferase levels reduced to normal (HCV) | IC50 [2]
1 | 810 ng·h/mL | 83.4 ng/mL | 1000 ng·h/mL | [2H]C([2H])([2H])C(c1cc(-c2cc(Cl)c[nH]c2=O)cc(/C=C/c2ccc(NS(C)(=O)=O)cc2)c1OC)(C([2H])([2H])[2H])C([2H])([2H])[2H] [Compound I-3, N-(4-{(E)-2-[3-[1,1-di(methyl-d3)ethyl-2,2,2-d3]-2-methoxy-5-(2-oxo-5-chloro-1,2-dihydro-pyridin-3-yl)-phenyl]-vinyl}-phenyl)-methanesulfonamide] | – | –
2 | – | – | – | NC(=O)c1ncn([C@@H]2O[C@H](CO)[C@@H](O)[C@H]2O)n1 [ribavirin, 1-((2R,3R,4S,5R)-3,4-Dihydroxy-5-hydroxymethyl-tetrahydro-furan-2-yl)-1H-[1,2,4]triazole-3-carboxylic acid amide] | 40% | –
3 | 338 ng·h/mL | 55.8 ng/mL | 365 ng·h/mL | COc1c(/C=C/c2ccc(NS(C)(=O)=O)cc2)cc(-c2cc(Cl)c[nH]c2=O)cc1C(C)(C)C [I-3 (non-deuterated), reference compound] | – | –
4 | – | – | – | [2H]C([2H])([2H])C(c1cc(-c2c[nH]c(=O)[nH]c2=O)cc(/C=C/c2ccc(NS(C)(=O)=O)cc2)c1OC)(C([2H])([2H])[2H])C([2H])([2H])[2H] [Compound I-4, N-(4-{(E)-2-[3-[1,1-di(methyl-d3)ethyl-2,2,2-d3]-5-(2,4-dioxo-1,2,3,4-tetrahydro-pyrimidin-5-yl)-2-methoxy-phenyl]-vinyl}-phenyl)-methanesulfonamide] | – | 3.9 nM
5 | – | – | – | [2H]C([2H])([2H])C(c1cc(-c2ccc[nH]c2=O)cc(/C=C/c2ccc(NS(C)(=O)=O)cc2)c1OC)(C([2H])([2H])[2H])C([2H])([2H])[2H] [Compound I-1, N-(4-{(E)-2-[3-[1,1-di(methyl-d3)ethyl-2,2,2-d3]-2-methoxy-5-(2-oxo-1,2-dihydro-pyridin-3-yl)-phenyl]-vinyl}-phenyl)-methanesulfonamide] | – | 6.1 nM
